One series has as its system HSV. Nature of the series: Antiviral activity, HSV/CV-1. The format is cell-based. The arrangement: key: +++ complete inhibition; ++ strong inhibition; + moderate inhibition; − no inhibition.
For another series, the system named is CV-1. Nature of the series: Cytotoxicity in the HSV/CV-1 antiviral test. The note with it: scale 0-least toxic to 16 (toxic).
Series [1] deals with elongation factor 1α (EF-1α) (Homo sapiens, UniProt P68104). The following applies: GTP-dependent; cited from earlier work.
Chain of elongation factor 1α (EF-1α) (P68104 whole entry): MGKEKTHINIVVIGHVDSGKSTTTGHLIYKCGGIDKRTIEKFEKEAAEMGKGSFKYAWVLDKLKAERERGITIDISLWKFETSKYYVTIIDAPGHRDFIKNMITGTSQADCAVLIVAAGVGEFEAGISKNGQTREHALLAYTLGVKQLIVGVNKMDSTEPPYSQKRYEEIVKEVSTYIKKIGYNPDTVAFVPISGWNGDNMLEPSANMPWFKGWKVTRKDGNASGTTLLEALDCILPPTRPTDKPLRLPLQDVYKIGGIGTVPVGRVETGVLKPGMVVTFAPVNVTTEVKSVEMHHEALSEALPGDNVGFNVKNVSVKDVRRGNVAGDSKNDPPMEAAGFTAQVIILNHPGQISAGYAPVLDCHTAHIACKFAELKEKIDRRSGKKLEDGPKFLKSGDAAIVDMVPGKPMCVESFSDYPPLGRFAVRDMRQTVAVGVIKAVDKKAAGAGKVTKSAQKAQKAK
The subject of a further series is DNA and RNA viruses. The following applies: cited from earlier work.
The conditions of series [2]: in vitro; cited from earlier work.
The test system of a further series is Nb2 node lymphoma cells. The following applies: cited from earlier work.

The values that follow come from US6380156B1, “Total synthesis of the amino hip analogue of didemnin A” (The Board of Trustees of the University of Illnois, priority 1996, dated 2002).

Numbered stars: 1 amine (or outer) side, 2 acyl side, 3 side chain; on linkers, the order of the positions; unused ones are H or OH. Bridge positions count the residues as written; N and C are the ends. Square brackets hold non-standard residues; d marks the D form. Peptide text beside a SMILES is read from it. * marks the point of attachment. X1 = CC[C@H](C)[C@@H](N[*:1])[C@@H](O)CC(=O)[*:2]; X2 = CC(C)[C@H](N[*:1])C(=O)[C@H](C)C(=O)[*:2]; NMeY = CN[C@@H](Cc1ccc(O)cc1)C(=O)O; dNMeL = CN[C@H](CC(C)C)C(=O)O; Cbz = O=C(OCc1ccccc1)*

On to `CC[C@H](C)[C@H]1NC(=O)[C@@H](NC(=O)[C@@H](CC(C)C)N(C)C(=O)OCc2ccccc2)[C@@H](C)OC(=O)[C@H](Cc2ccc(OC)cc2)N(C)C(=O)[C@@H]2CCCN2C(=O)[C@H](CC(C)C)NC(=O)[C@@H](C)C(=O)[C@H](C(C)C)NC(=O)C[C@@H]1O` [Cbz-[Aip^3]-Didemnin A] (Cbz-[dNMeL]T[X1][X2]LP[NMeY](Me); ester 2-C), for which the “HSV/CV-1 Activity (antiviral)” value with HSV (10 ng/mL) is “−”; in the series with HSV (20 ng/mL), “+”; with HSV (50 ng/mL), “+”; in the series with HSV (100 ng/mL), “+”. Moreover, the “HSV/CV-1 Cytotoxicity” value in the series with CV-1 (10 ng/mL) came out at 0; in the series with CV-1 (20 ng/mL) it was 0; in the series with CV-1 (50 ng/mL) it was 8; in the series with CV-1 (100 ng/mL), 10.
Turning to Didemnin A [Didemnin A (1)], the “HSV/CV-1 Activity (antiviral)” value in the series on HSV (10 ng/mL) was “−”; with HSV (20 ng/mL), “+”; with HSV (50 ng/mL), “+”; in the series on HSV (100 ng/mL), “+”. Moreover, in series [1], the “binding to elongation factor 1α (EF-1α)” value is reported as “binds elongation factor 1α (EF-1α) in a GTP-dependent manner”. Further, the “antiviral activity against DNA and RNA viruses” value in the series on DNA and RNA viruses is on record as “exhibit antiviral activity”. Moreover, the “HSV/CV-1 Cytotoxicity” value with CV-1 (10 ng/mL), in the series on CV-1 (20 ng/mL), in the series with CV-1 (50 ng/mL) and in the series with CV-1 (100 ng/mL) was 0 throughout.
Take Didemnin B: in series [2], the “cytotoxicity relative to didemnin A” value was “approximately twenty times more cytotoxic than didemnin A”. In addition, in the series on DNA and RNA viruses, the “antiviral activity against DNA and RNA viruses” value is “exhibit antiviral activity”. Moreover, in the series on Nb2 node lymphoma cells, the “binding to a site on Nb2 node lymphoma cells” value is given as “binds to a site on Nb2 node lymphoma cells”.
